Experimental data published in PubChem BioAssay AID328 (DTP/NCI, 2004).
Values joined by “and” are separate entries in the source; they are usually repeats but may differ in a detail not shown here. Identical values can stand only once. Inconclusive results and toxic doses are left out. Rule for the calls: active = survival T/C of 150% or more; inactive = T/C below 125% in these data.

System: BDF1 mice, P388 leukemia ip, median survival T/C
Assay: NCI In Vivo Anticancer Drug Screen. Data for tumor model P388 Leukemia (intraperitoneal) in B6D2F1 (BDF1) mice
Settings: endpoint: median survival time, higher = longer survival
Method in brief: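 Steps: implant the tumour, treat one group with compound and another with vehicle, record survival, then divide treated by control.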

[1] = dose: 6.25 mg/kg/injection, schedule: Q01DX009 (ip), vehicle: saline
[2] = dose: 12.5 mg/kg/injection, schedule: Q04DX003 (ip), vehicle: saline
[3] = dose: 25.0 mg/kg/injection, schedule: Q01DX009 (ip), vehicle: saline
[4] = dose: 25.0 mg/kg/injection, schedule: Q04DX003 (ip), vehicle: saline
[5] = dose: 100.0 mg/kg/injection, schedule: Q01DX009 (ip), vehicle: Klucel (hydroxypropylcellulose) (HPC)
[6] = dose: 200.0 mg/kg/injection, schedule: Q01DX009 (ip), vehicle: Klucel (hydroxypropylcellulose) (HPC)
[7] = dose: 50.0 mg/kg/injection, schedule: Q01DX009 (ip), vehicle: saline with Tween-80
[8] = dose: 100.0 mg/kg/injection, schedule: Q01DX009 (ip), vehicle: saline with Tween-80
[9] = dose: 200.0 mg/kg/injection, schedule: Q01DX009 (ip), vehicle: saline with Tween-80
[10] = dose: 100.0 mg/kg/injection, schedule: Q04DX003 (ip), vehicle: saline
[11] = dose: 200.0 mg/kg/injection, schedule: Q04DX003 (ip), vehicle: saline
[12] = dose: 400.0 mg/kg/injection, schedule: Q04DX003 (ip), vehicle: saline
[13] = dose: 25.0 mg/kg/injection, schedule: Q01DX009 (ip), vehicle: saline with Tween-80
[14] = dose: 100.0 mg/kg/injection, schedule: Q04DX003 (ip), vehicle: saline with Tween-80
[15] = dose: 200.0 mg/kg/injection, schedule: Q04DX003 (ip), vehicle: saline with Tween-80
[16] = dose: 400.0 mg/kg/injection, schedule: Q04DX003 (ip), vehicle: saline with Tween-80
[17] = dose: 200.0 mg/kg/injection, schedule: Q01DX009 (ip), vehicle: other
[18] = dose: 400.0 mg/kg/injection, schedule: Q01DX009 (ip), vehicle: other
[19] = dose: 12.5 mg/kg/injection, schedule: Q01DX009 (ip), vehicle: saline with Tween-80
[20] = dose: 100.0 mg/kg/injection, schedule: Q04DX003 (ip), vehicle: Klucel (hydroxypropylcellulose) (HPC)
[21] = dose: 200.0 mg/kg/injection, schedule: Q04DX003 (ip), vehicle: Klucel (hydroxypropylcellulose) (HPC)
[22] = dose: 400.0 mg/kg/injection, schedule: Q01DX009 (ip), vehicle: Klucel (hydroxypropylcellulose) (HPC)
[23] = dose: 400.0 mg/kg/injection, schedule: Q04DX003 (ip), vehicle: Klucel (hydroxypropylcellulose) (HPC)
[24] = dose: 400.0 mg/kg/injection, schedule: Q01DX009 (ip), vehicle: saline with Tween-80

Measured: T/C

c1ccc(C[n+]2ccc3ccccc3c2)cc1
inactive: [1] 100 % of control | dose: 12.5 mg/kg/injection, schedule: Q01DX009 (ip), vehicle: saline 90 % of control | [2] 95 % of control | [3] 118 % of control | [4] 100 % of control

Cn1c(=O)[nH]c2ccccc2c1=O
inactive: dose: 100.0 mg/kg/injection, schedule: Q01DX001 (ip), vehicle: Klucel (hydroxypropylcellulose) (HPC) 104 % of control | dose: 200.0 mg/kg/injection, schedule: Q01DX001 (ip), vehicle: Klucel (hydroxypropylcellulose) (HPC) 104 % of control | dose: 400.0 mg/kg/injection, schedule: Q01DX001 (ip), vehicle: Klucel (hydroxypropylcellulose) (HPC) 107 % of control

FC(F)(F)/C([S-])=C(/[S-])C(F)(F)F.FC(F)(F)/C([S-])=C(/[S-])C(F)(F)F.FC(F)(F)/C([S-])=C(/[S-])C(F)(F)F.FC(F)(F)/C([S-])=C(/[S-])C(F)(F)F.[Co+3].[Co+3]
inactive: dose: 12.5 mg/kg/injection, schedule: Q04DX003 (ip), vehicle: other 110 % of control | dose: 25.0 mg/kg/injection, schedule: Q04DX003 (ip), vehicle: other 120 % of control

CCCCCn1c(Cl)c(/C=N\Nc2ccc([N+](=O)[O-])cc2[N+](=O)[O-])c2ccccc21
inactive: dose: 100.0 mg/kg/injection, schedule: Q04DX002 (ip), vehicle: Klucel (hydroxypropylcellulose) (HPC) 88 % of control | dose: 200.0 mg/kg/injection, schedule: Q04DX002 (ip), vehicle: Klucel (hydroxypropylcellulose) (HPC) 89 % of control | dose: 400.0 mg/kg/injection, schedule: Q04DX002 (ip), vehicle: Klucel (hydroxypropylcellulose) (HPC) 90 % of control

O=C(/C=C/c1c(Cl)cccc1Cl)c1ccccc1
inactive: dose: 50.0 mg/kg/injection, schedule: Q01DX009 (ip), vehicle: Klucel (hydroxypropylcellulose) (HPC) 97 % of control | [5] 105 % of control | [6] 97 % of control

C=CCNC(=S)N/N=C\c1cc(OC)c(OC)c(OC)c1
inactive: [7] 95 % of control | [8] 100 % of control | [9] 90 % of control

O=S(=O)(O)CCN1CCN(CCO)CC1
inactive: [10] 91 % of control | [11] 108 % of control | [12] 95 % of control

c1ccc([P+](CCCCCCCCCC[P+](c2ccccc2)(c2ccccc2)c2ccccc2)(c2ccccc2)c2ccccc2)cc1
inactive: dose: 2.5 mg/kg/injection, schedule: Q01DX010 (ip), vehicle: saline 100 % of control | dose: 5.0 mg/kg/injection, schedule: Q01DX010 (ip), vehicle: saline 109 % of control

OCCOc1c(Cl)c(Cl)c(Cl)c(Cl)c1Cl
inactive: [13] 100 % of control | [7] 104 % of control | dose: 50.0 mg/kg/injection, schedule: Q04DX003 (ip), vehicle: saline with Tween-80 100 % of control | [8] 118 % of control | [14] 100 % of control

O=[N+]([O-])c1ccc(N2CCN(c3cccc(C(F)(F)F)c3)CC2)c([N+](=O)[O-])c1
inactive: [14] 113 % of control | [15] 100 % of control | [16] 100 % of control

CCCCCCCCCCCC[Si](CCCCCCCCCCCC)(c1ccccc1)c1ccccc1
inactive: dose: 100.0 mg/kg/injection, schedule: Q01DX009 (ip), vehicle: other 95 % of control | [14] 100 % of control | [17] 114 % of control | [15] 100 % of control | [18] 109 % of control | [16] 100 % of control

c1cc2c(c(NC3=NCCCO3)c1)CCCC2
inactive: [19] 100 % of control | [13] 110 % of control | [7] 105 % of control

CC(C(=O)O)C(=O)O.[NH2-].[NH2-].[Pt+2]
active: [3] 214 % of control
inactive: [1] 93 % of control

CC(=O)NCCCCCC(=O)O
inactive: [5] 90 % of control | [20] 95 % of control | [6] 90 % of control | [21] 95 % of control | [22] 109 % of control | [23] 109 % of control

CN=C(NC#N)NCCSCc1nc[nH]c1C
inactive: dose: 12.5 mg/kg/injection, schedule: Q01DX005 (ip), vehicle: Klucel (hydroxypropylcellulose) (HPC) 96 % of control | dose: 25.0 mg/kg/injection, schedule: Q01DX005 (ip), vehicle: Klucel (hydroxypropylcellulose) (HPC) 92 % of control and 116 % of control | dose: 50.0 mg/kg/injection, schedule: Q01DX005 (ip), vehicle: Klucel (hydroxypropylcellulose) (HPC) 101 % of control | dose: 100.0 mg/kg/injection, schedule: Q01DX005 (ip), vehicle: Klucel (hydroxypropylcellulose) (HPC) 93 % of control and 101 % of control | dose: 200.0 mg/kg/injection, schedule: Q01DX005 (ip), vehicle: Klucel (hydroxypropylcellulose) (HPC) 118 % of control | dose: 400.0 mg/kg/injection, schedule: Q01DX005 (ip), vehicle: Klucel (hydroxypropylcellulose) (HPC) 95 % of control

COc1ccc(C=Nc2ccc(OC(C)=O)cc2)cc1
inactive: dose: 45.0 mg/kg/injection, schedule: Q01DX009 (ip), vehicle: Klucel (hydroxypropylcellulose) (HPC) 105 % of control | [7] 110 % of control | dose: 65.0 mg/kg/injection, schedule: Q01DX009 (ip), vehicle: Klucel (hydroxypropylcellulose) (HPC) 110 % of control | [5] 110 % of control | [8] 100 % of control | [10] 104 % of control | dose: 150.0 mg/kg/injection, schedule: Q01DX009 (ip), vehicle: Klucel (hydroxypropylcellulose) (HPC) 105 % of control | [6] 115 % of control | [17] 104 % of control | [9] 120 % of control | [11] 118 % of control | dose: 300.0 mg/kg/injection, schedule: Q01DX009 (ip), vehicle: Klucel (hydroxypropylcellulose) (HPC) 120 % of control | [18] 95 % of control | [12] 109 % of control

NC(=S)c1c(N)n(C2OC(CO)C(O)C2O)c2ncnc(N)c12 (stereo not drawn)
inactive: [2] 114 % of control | [4] 112 % of control

CCS(=O)(=O)C(N=Nc1ccccc1)S(=O)(=O)CC
inactive: dose: 20.0 mg/kg/injection, schedule: Q01DX009 (ip), vehicle: Klucel (hydroxypropylcellulose) (HPC) 107 % of control | dose: 40.0 mg/kg/injection, schedule: Q01DX009 (ip), vehicle: Klucel (hydroxypropylcellulose) (HPC) 101 % of control | dose: 80.0 mg/kg/injection, schedule: Q01DX009 (ip), vehicle: Klucel (hydroxypropylcellulose) (HPC) 107 % of control

O=C(O)C1CC2C=CC1C2 (stereo not drawn)
inactive: [19] 118 % of control | [13] 113 % of control | [7] 109 % of control | [8] 110 % of control and 100 % of control | [9] 90 % of control | [24] 86 % of control

CCOC(=O)/C(C#N)=C/c1ccc(O)c(OC)c1
inactive: [5] 105 % of control | [20] 95 % of control | [6] 110 % of control | [21] 100 % of control | [22] 95 % of control | [23] 100 % of control

CC1(C)OC1[Si](C)(C)C (stereo not drawn)
inactive: [7] 107 % of control | [8] 121 % of control | [9] 111 % of control

CCOC(=O)C12CC=CC(CCC1)/C2=N\Nc1ccccc1 (stereo not drawn)
inactive: [8] 90 % of control | [9] 90 % of control | [24] 117 % of control

ClC[P+](c1ccccc1)(c1ccccc1)c1ccccc1
inactive: dose: 3.0 mg/kg/injection, schedule: Q01DX009 (ip), vehicle: saline 120 % of control | dose: 6.0 mg/kg/injection, schedule: Q01DX009 (ip), vehicle: saline 116 % of control | [2] 100 % of control

Nc1nc2ncc(CN(CCS(=O)(=O)F)c3ccc(C(=O)NC(CCC(=O)O)C(=O)O)cc3)nc2c(=O)[nH]1 (stereo not drawn)
inactive: dose: 50.0 mg/kg/injection, schedule: Q04DX003 (ip), vehicle: sodium bicarbonate 105 % of control | dose: 100.0 mg/kg/injection, schedule: Q04DX003 (ip), vehicle: sodium bicarbonate 99 % of control | dose: 200.0 mg/kg/injection, schedule: Q04DX003 (ip), vehicle: sodium bicarbonate 94 % of control

CSc1ccc(O)c(S)c1
inactive: [7] 118 % of control | [8] 122 % of control | [9] 124 % of control

C=CC[N+](CC=C)(CC=C)CCC[N+](CC=C)(CC=C)CC=C
inactive: dose: 25.0 mg/kg/injection, schedule: Q04DX003 (ip), vehicle: water 107 % of control | dose: 50.0 mg/kg/injection, schedule: Q04DX003 (ip), vehicle: water 88 % of control
